In article PMC3364195, “Fractionation of a Herbal Antidiarrheal Medicine Reveals Eugenol as an Inhibitor of Ca^2+-Activated Cl^− Channel TMEM16A” (PLoS ONE, 2012):
Where “and” joins values, the source holds several entries; their conditions need not be identical. Equal values may be shown once. Entries after “also recorded” stand apart in the source; their conditions may differ.

Columns and labels:
CFTR = molecular target: T1, CFTR (Homo sapiens, UniProt P13569); assay: Short-circuit current in FRT cells expressing wild type CFTR; type: cell-based; details: forskolin 20 µM stimulated
T1 construct: expressed in transfected cells; host or cells: FRT cells
T1 sequence (P13569 whole entry, species assumed): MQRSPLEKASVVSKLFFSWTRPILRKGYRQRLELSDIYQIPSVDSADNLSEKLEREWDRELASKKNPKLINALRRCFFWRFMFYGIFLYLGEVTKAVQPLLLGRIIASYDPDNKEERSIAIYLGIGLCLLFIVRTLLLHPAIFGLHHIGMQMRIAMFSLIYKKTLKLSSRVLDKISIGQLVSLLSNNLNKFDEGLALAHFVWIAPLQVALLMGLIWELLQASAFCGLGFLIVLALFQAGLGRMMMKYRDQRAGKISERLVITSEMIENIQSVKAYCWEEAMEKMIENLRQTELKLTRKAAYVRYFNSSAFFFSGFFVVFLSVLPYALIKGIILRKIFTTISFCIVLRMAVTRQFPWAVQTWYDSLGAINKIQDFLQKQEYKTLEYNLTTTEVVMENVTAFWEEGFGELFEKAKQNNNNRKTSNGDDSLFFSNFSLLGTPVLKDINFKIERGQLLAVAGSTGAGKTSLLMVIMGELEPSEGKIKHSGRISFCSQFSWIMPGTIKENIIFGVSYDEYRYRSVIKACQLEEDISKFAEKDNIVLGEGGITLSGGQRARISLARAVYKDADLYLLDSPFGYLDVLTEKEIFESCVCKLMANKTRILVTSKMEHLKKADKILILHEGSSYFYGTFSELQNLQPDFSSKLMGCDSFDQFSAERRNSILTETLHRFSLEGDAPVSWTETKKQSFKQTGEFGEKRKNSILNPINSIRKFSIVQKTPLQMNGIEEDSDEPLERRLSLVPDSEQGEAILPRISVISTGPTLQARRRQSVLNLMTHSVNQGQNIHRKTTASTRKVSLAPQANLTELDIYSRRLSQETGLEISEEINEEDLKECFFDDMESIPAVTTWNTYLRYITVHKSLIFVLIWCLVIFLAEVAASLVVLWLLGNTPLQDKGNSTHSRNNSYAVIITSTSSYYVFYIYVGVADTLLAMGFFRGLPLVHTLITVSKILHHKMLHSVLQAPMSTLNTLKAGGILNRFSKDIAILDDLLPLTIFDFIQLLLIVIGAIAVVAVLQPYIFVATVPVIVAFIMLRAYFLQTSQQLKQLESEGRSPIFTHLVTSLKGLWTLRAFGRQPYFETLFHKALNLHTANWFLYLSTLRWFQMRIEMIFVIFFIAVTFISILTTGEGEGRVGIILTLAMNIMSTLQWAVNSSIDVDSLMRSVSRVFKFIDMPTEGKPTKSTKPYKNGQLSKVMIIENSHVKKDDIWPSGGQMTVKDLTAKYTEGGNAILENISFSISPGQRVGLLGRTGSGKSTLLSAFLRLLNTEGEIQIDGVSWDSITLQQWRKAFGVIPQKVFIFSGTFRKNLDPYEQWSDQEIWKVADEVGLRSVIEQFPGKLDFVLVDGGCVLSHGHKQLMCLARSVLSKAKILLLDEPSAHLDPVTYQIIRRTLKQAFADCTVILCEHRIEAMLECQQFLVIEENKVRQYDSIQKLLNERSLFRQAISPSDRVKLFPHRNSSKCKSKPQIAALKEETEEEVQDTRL
Procedure: Snapwell inserts containing TMEM16A-expressing FRT cells or T84 cells were mounted in Ussing chambers (Physiologic Instruments, San Diego, CA). Activators and inhibitors (herbal formulation, eugenol, ionomycin, tannic acid, forskolin, CFTRinh-172, ATP, Eact, T16Ainh-A01) were added to the apical solution and an equal volume of vehicle was added at the same time to the basolateral solution. […] For FRT cells, the hemichambers were filled with a half-Cl^− solution (apical) and the HCO3 ^−-buffered solution (basolateral), and the basolateral membrane was permeabilized with 250 µg/mL amphotericin B. Cells were bathed for a 10 min stabilization period and aerated with 95% O2/5% CO2 at 37°C or room temperature. Short-circuit current was measured using an EVC4000 Multi-Channel V/I Clamp (World Precision Instruments, Sarasota, FL).

human TMEM16A [1] = molecular target: T2, human TMEM16A (Homo sapiens, UniProt Q5XXA6); assay: Short-circuit current in TMEM16A-expressing FRT cells; type: cell-based
T2 sequence (Q5XXA6 1-986): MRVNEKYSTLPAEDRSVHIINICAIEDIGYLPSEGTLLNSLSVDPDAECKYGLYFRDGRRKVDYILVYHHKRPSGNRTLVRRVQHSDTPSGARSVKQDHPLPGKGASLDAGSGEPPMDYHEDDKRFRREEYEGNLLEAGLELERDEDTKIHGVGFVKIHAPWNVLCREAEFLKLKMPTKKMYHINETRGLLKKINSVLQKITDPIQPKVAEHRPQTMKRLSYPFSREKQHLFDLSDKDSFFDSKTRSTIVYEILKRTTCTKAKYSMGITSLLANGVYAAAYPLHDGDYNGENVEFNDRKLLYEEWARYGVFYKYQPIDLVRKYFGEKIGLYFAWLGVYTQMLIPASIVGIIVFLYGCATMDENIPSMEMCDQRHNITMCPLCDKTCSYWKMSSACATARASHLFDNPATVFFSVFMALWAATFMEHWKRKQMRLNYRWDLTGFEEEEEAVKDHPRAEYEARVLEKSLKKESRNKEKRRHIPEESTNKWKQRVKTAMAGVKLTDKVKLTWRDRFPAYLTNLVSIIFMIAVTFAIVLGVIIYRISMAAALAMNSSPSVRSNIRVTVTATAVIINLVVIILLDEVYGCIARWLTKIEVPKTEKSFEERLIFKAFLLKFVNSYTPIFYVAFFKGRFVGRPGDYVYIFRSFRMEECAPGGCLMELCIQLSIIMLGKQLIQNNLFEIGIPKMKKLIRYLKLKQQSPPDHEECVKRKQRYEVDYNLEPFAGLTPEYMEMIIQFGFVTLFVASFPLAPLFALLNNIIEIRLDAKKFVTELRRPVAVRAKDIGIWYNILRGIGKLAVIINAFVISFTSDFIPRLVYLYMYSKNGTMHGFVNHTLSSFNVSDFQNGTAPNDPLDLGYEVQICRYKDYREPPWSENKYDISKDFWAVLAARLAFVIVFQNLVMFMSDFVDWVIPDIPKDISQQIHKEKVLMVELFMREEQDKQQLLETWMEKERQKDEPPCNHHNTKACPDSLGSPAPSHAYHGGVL
Procedure: (§1) FRT cells stably expressing human TMEM16A and the halide sensor YFP-H148Q/I152L/F46L were generated as described. Cells were plated in 96-well black-walled microplates (Corning Inc., Corning, NY) at a density of 20,000 cells per well in Coon's modified F12 medium supplemented with 5% fetal calf serum, 2 mM L-glutamine, 100 U/mL penicillin and 100 µg/mL streptomycin. T84 cells were cultured in DMEM/Ham's F-12 (1∶1) medium containing 10% FBS, 100 U/ml penicillin and 100 µg/ml streptomycin. A commercially available Thai herbal formulation (Krisanaklan, Osotspa Inc., Bangkapi, Thailand) consists of an ethanol/water (54∶46) extract in which each 100 mL was obtained from 10 g of Aquilaria crassna bark, 33.3 g of clove flower bud, 2 g of Terminalia triptera Stapf bark and 4.8 g of camphor flower bud. HPLC grade solvents were purchased from Fisher Scientific (Fairlawn, VA) and EMD Chemical Inc. (Philadelphia, PA). Eugenol and eugenol analog 2 were purchased from Sigma-Aldrich (St. Louis, MO). Other eugenol analogs were purchased from Fisher Scientific (Pittsburgh, PA).
(§2) Snapwell inserts containing TMEM16A-expressing FRT cells or T84 cells were mounted in Ussing chambers (Physiologic Instruments, San Diego, CA). Activators and inhibitors (herbal formulation, eugenol, ionomycin, tannic acid, forskolin, CFTRinh-172, ATP, Eact, T16Ainh-A01) were added to the apical solution and an equal volume of vehicle was added at the same time to the basolateral solution. Symmetrical HCO3 ^−-buffered solutions were used for T84 cells. For FRT cells, the hemichambers were filled with a half-Cl^− solution (apical) and the HCO3 ^−-buffered solution (basolateral), and the basolateral membrane was permeabilized with 250 µg/mL amphotericin B. Cells were bathed for a 10 min stabilization period and aerated with 95% O2/5% CO2 at 37°C or room temperature. Short-circuit current was measured using an EVC4000 Multi-Channel V/I Clamp (World Precision Instruments, Sarasota, FL).

[2] = tested on: cytoplasmic Ca2+ elevation in FRT cells; assay: Cytoplasmic Ca2+ measurement (Fluo-4) in FRT cells; type: cell-based; details: Fluo-4 fluorescence, 10 min incubation
Procedure: FRT cells in 96-well plates were loaded with Fluo-4 NW (Invitrogen, Carlsbad, CA) at 48 h after plating. Fluo-4 fluorescence was measured continuously using a FLUOstar Optima fluorescence plate reader (BMG Labtechnologies) equipped with syringe pump for addition of ATP.

mouse ileum = assay: Intestinal smooth muscle contraction, mouse ileal segments ex vivo
Procedure: Wild type CD1 mice (age 8–10 weeks) were killed by avertin overdose (200 mg/kg). The ileum was removed and washed with ice-cold HCO3 ^−-buffered solution. The ends of the ileal segments were tied with silk thread and connected to a force transducer. Ileal segments were equilibrated for 60 min with a resting force of ∼1 mN, with changes of the bathing solution every 15 min. […] Data were recorded using MP100, Biopac digital acquisition system and analyzed using Acknowledge 3.5.7 software.

[3] = tested on: Ca2+ current in cardiac myocytes; set-up: method as in PMID 15550789; details: read-out: IC50 for inhibition of Ca2+ current; cited from earlier work
[4] = tested on: hyperpolarization-activated cyclic nucleotide-gated Na+ and K+ channels; set-up: method as in earlier work; details: trigeminal ganglion neurons; ref 27 (Yeon et al.); read-out: IC50 for inhibition of HCN channels; cited from earlier work
human TMEM16A [5] = molecular target: T2, human TMEM16A; assay: Plate-reader YFP fluorescence assay of TMEM16A-mediated I- influx in FRT cells; type: cell-based
Procedure: as §1, with “HPLC grade solvents were purchased from Fisher Scientific (Fairlawn, VA) and EMD Chemical Inc. (Philadelphia, PA). Eugenol and eugenol analog 2 were purchased from Sigma-Aldrich (St. Louis, MO). Other eugenol analogs were purchased from Fisher Scientific (Pittsburgh, PA).” left out
YFP fluorescence measurements in TMEM16A expressing FRT cells were carried out on a fluorescence plate reader (Optima; BMG Labtech, Durham, NC) equipped with dual syringe pumps and 500±10 nm excitation and 535±15 nm emission filters as described. […] After 10 min incubation, each well was assayed individually for TMEM16A-mediated I^− influx by recording fluorescence continuously (400 ms per point) for 2 s (baseline), followed by addition of 100 µL of a 140 mM I^− solution containing 200 µM ATP. The initial rate of I^− influx was computed from fluorescence data by non-linear regression.

tracheal smooth muscle = tested on: tracheal smooth muscle; set-up: method as in PMID 21077946; details: read-out: IC50 for inhibition of tracheal smooth muscle contraction; cited from earlier work
[6] = cited from earlier work
TMEM16A = assay: Whole-cell patch-clamp on TMEM16A-expressing FRT cells; type: cell-based, human; details: 150 µM eugenol, 5 µM Eact, ±80 mV
Procedure: Whole-cell recordings were made at room temperature on TMEM16A-expressing FRT cells as described. The pipette solution contained (in mM): 130 CsCl, 0.5 EGTA, 1 MgCl2, 1 Tris-ATP, and10 HEPES (pH 7.2). The bath solution contained (in mM): 140 NMDG-Cl, 1 CaCl2, 1 MgCl2, 10 glucose and 10 HEPES (pH 7.4). TMEM16A was activated by 5 µM Eact and then inhibited by 150 µM eugenol. Whole-cell currents were elicited by applying hyperpolarizing and depolarizing voltage pulses from a holding potential of 0 mV to potentials between −80 mV and +80 mV in 20 mV steps. Currents were digitized, filtered at 5 kHz, and sampled at 1 kHz.

[7] = tested on: CaCC in T84 human colonic epithelial cells; assay: Short-circuit current in T84 cells (ATP-stimulated native CaCC Cl- current); type: cell-based; details: 100 µM tannic acid
Procedure: as §2

[8] = rat, oral 40 mg/kg, ref 30 (Lionnet et al.)

Molecule: O=C(O)c1ccc(/C=C2\SC(=S)N(c3cccc(C(F)(F)F)c3)C2=O)cc1 [CFTRinh-172, reference compound]
- inhibition of CFTR Cl- current (CFTR; 10 µM CFTRinh-172): completely inhibited

Molecule: CCc1c(C)nc(SCC(=O)Nc2nc(-c3ccc(OC)cc3)cs2)[nH]c1=O [T16Ainh-A01, reference compound]
- inhibition of TMEM16A Cl- current by 1 µM T16Ainh-A01 (human TMEM16A [1]; 1 µM): ~50%
- inhibition of Eact-stimulated TMEM16A Cl- current (human TMEM16A [1]; Eact 10 µM, 10 µM T16Ainh-A01): completely inhibited; also recorded: totally inhibited

Molecule: C=CCc1ccc(O)c(OC)c1 [compound 1, 4-allyl-2-methoxyphenol]
- effect on cytoplasmic Ca2+ in response to ATP [2]: did not inhibit
- effect on CFTR Cl- conductance (CFTR; eugenol up to 1 mM): little effect
- extent of inhibition of TMEM16A Cl- conductance (human TMEM16A [1]): fully inhibited
- inhibition at 1000 µM (human TMEM16A [1]; FRT, read-out: inhibition of TMEM16A at 1 mM): > 95%
- IC50 (human TMEM16A [1]; IC50 for inhibition of TMEM16A Cl- current, Eact (10 µM)-stimulated short-circuit current, FRT cells): 154 µM and ~150 µM
- inhibition of ionomycin-activated TMEM16A Cl- current (human TMEM16A [1]; eugenol added 5 min prior to 1 µM ionomycin, amphotericin B permeabilized, Cl- gradient): concentration-dependent inhibition
- IC50 (mouse ileum; Mus musculus, read-out: IC50 for inhibition of intestinal smooth muscle contraction): ~150 µM
- inhibition of ileal contractions following activation by Eact (mouse ileum; atropine added initially): inhibition
- effect on contraction frequency (mouse ileum; mouse ileal segments ex vivo): small effect
- effect on resting and maximal tone (mouse ileum; mouse ileal segments ex vivo): more marked effect
- inhibition of spontaneous intestinal contractions (mouse ileum; mouse ileal segments ex vivo, listed as Eugenol): strong inhibition
- inhibition of spontaneous intestinal contractions (mouse ileum; mouse ileal segments ex vivo, listed as eugenol): inhibited by eugenol in a dose-dependent manner
- IC50 [3]: ~300 µM
- IC50 [4]: 157 µM
- inhibition at 200 µM (human TMEM16A [5]; FRT): 51 ± 7%
- IC50 (tracheal smooth muscle): ~600 µM
- serum concentration following intravenous administration ([6]; intravenous): 180000 nM
- concentration in brain and spinal cord after oral administration [6, 8]: 2800 nM
- concentration in serum after oral administration [6, 8]: 600 nM
- serum concentration (similar oral study) ([6]; rats): 1500 nM
- block mechanism of TMEM16A chloride current (TMEM16A): voltage-independent block

Molecule: CCCc1ccc(O)c(OC)c1 [compound 5]
- % inhibition at 200 μM (human TMEM16A [5]): 38 ± 7%

Molecule: tannic acid
- inhibition of ATP-stimulated CaCC Cl- current [7]: completely inhibited
